# Measured values from paper PMC3598976, “Potent in vivo anti-malarial activity and representative snapshot pharmacokinetic evaluation of artemisinin-quinoline hybrids” (Malaria Journal, 2013).
# Values joined by “and” are separate entries in the source; they are usually repeats but may differ in a detail not shown here. Equal entries are not always repeated. Where two headings read alike, the source gives them in different places.
# Experiments:
# [1] = test system: Plasmodium vinckei (BY strain); test: In vivo anti-malarial activity against P. vinckei in infected mice, four-day treatment; conditions: for ED50: Plasmodium vinckei, in Mus musculus, 120 h
# [2] = test system: Plasmodium vinckei (BY strain); conditions: mouse, in vivo
# Dd2 P. falciparum strain = test system: Dd2 P. falciparum strain; set-up: method as in PMID 21316959; conditions: previously determined, read-out: IC50 (nM) ± SD Dd2; cited from earlier work
# D10 P. falciparum strain = test system: D10 P. falciparum strain; set-up: method as in PMID 21316959; conditions: previously determined, read-out: IC50 (nM) ± SD D10; cited from earlier work
# [3] = test system: 3D7 strain of P. falciparum; test: In vitro anti-malarial activity against 3D7 strain ([3H]-hypoxanthine incorporation); type: cell-based, Plasmodium falciparum; conditions: read-out: IC50 (nM) ± SD 3D7
# Experimental: The 3D7 strain of P. falciparum was asexually cultured in human blood in complete medium (RPMI 1640 supplemented with 25 mM Hepes, pH 7.4) and 10% AB+ human serum. Drug effects were measured in microtitre plates on suspensions of asynchronous P. falciparum infected red blood cells (1.5% final haematocrit, 0.6% parasitaemia) according to Desjardins et al.[18]. Drugs, previously dissolved in DMSO, were diluted in culture medium so that the final DMSO concentration never exceeded 0.25%. […] Analyses of dose-effect curves were performed with the Graphpad Prism analytical software. […] Values are the means of at least two independent experiments (different cell cultures, different drug dilution stocks), each performed in duplicates.
# [4] = cited from earlier work
# [5] = set-up: method as in PMID 17267300; conditions: cited from earlier work
compound,measurement,setting,value
"C[C@H]1[C@H](OC(=O)CCC(=O)O)O[C@@H]2O[C@@]3(C)CC[C@H]4[C@H](C)CC[C@@H]1[C@@]24OO3 [Artesunate, reference compound]",ED50,"[1]; ip, read-out: ED50 ip",< 1 mg/kg
same,ED50,"[1]; po, read-out: ED50 per os",1.8 mg/kg
same,Reduction of parasitaemia at day 5,"[1]; ip 1 mg/kg/day, four days",70%
same,Parasitaemia remaining after treatment,"[1]; ip 30 mg/kg/day, four days",3%
same,Survival,"[1]; ip 30 mg/kg/day, four days",50%
same,Curative dose relative to ED50,[1]; ip and per os,about 40 times
same,Decrease of parasitaemia,"[1]; per os 4 mg/kg/day, four days",93%
same,"Dose giving complete cure / clearance of parasitaemia, per os",[2],80 mg/kg
"CCN(CC)CCCC(C)Nc1ccnc2cc(Cl)ccc12 (stereo not shown) [CQ, Chloroquine]",IC50,Dd2 P. falciparum strain,158 ± 52.7 nM
same,IC50,D10 P. falciparum strain,21.5 ± 6.7 nM
same,IC50,"[3]; Plasmodium falciparum, 3D7, 48 h",20 ± 1.6 nM
"C[C@H]1[C@@H](O)O[C@@H]2O[C@@]3(C)CC[C@H]4[C@H](C)CC[C@@H]1[C@@]24OO3 [DHA, Dihydroartemisinin]",IC50,Dd2 P. falciparum strain,2.1 ± 0.3 nM
same,Half-life ip,[4],25 min
same,IC50,D10 P. falciparum strain,5.1 ± 0.6 nM
same,AUC,[5],8748 ± 2016 ng·min/mL
same,Clearance rate,[5],1190 mL/min/kg
same,Oral volume of distribution,[5],353.5 ± 194.9 L/kg
same,Maximum concentration,[5]; dose of 10 mg/kg,142.2 ± 21.1 ng/mL
same,Time to maximum concentration,[5]; dose of 10 mg/kg,48 ± 6 min
C[C@@H]1CCC2[C@@H](C)[C@@H](OCCNCCCNc3ccnc4cc(Cl)ccc34)O[C@@H]3O[C@@]4(C)CCC1[C@@]23OO4 (stereo partly shown) [Hybrid 3],IC50,Dd2 P. falciparum strain,19.8 ± 0.3 nM
same,ED50,"[1]; ip, read-out: ED50 ip",< 0.8 mg/kg
same,ED50,"[1]; po, read-out: ED50 per os",13 mg/kg
same,Survival rate,"[1]; at the same dosages (15 mg/kg ip, 50 mg/kg per os)",66%
same,ED50ip/ ED50per os ratio (oral absorption),[1]; in DMSO,< 6%
same,"Parasitaemia on day 5, % of the control",[1]; ip 7.5 mg/kg D1-D4,0.02%
same,Recrudescence,[1]; ip 7.5 mg/kg D1-D4,Recrudescence occurred
same,Parasitemia (%) D5,"[1]; ip 7.5 mg/kg D1-D4, Mean ± SEM",0.02%
same,"Parasitaemia on day 5, % of the control",[1]; ip 15 mg/kg D1-D4,0.01%
same,Recrudescence,[1]; ip 15 mg/kg D1-D4,No recrudescence was observed for two of the three mice
same,Survival beyond day 20,[1]; ip 15 mg/kg D1-D4,66%
same,Mortality (day of death),"[1]; ip 15 mg/kg D1-D4, individual mice",8
same,"Dose giving complete cure / clearance of parasitaemia, ip","[1]; ip, four days, long-term monitoring",not obtained
same,Recrudescence,[1]; per os 25 mg/kg D1-D4,Delayed recrudescence
same,"Parasitaemia on day 5, % of the control",[1]; per os 50 mg/kg D1-D4,0.01%
same,Recrudescence,[1]; per os 50 mg/kg D1-D4,2 of the 3 mice showed no recrudescence
same,Survival beyond day 17,[1]; per os 50 mg/kg D1-D4,66%
same,"Dose giving complete cure / clearance of parasitaemia, per os","[1]; per os, four days, long-term monitoring",not obtained
same,Parasitemia (%) D5,"[1]; po 25 mg/kg D1-D4, Mean ± SEM, 25 mg/kg",0.02%
same,Parasitemia (%) D5,"[1]; po 25 mg/kg D1-D4, Mean ± SEM, listed as hybrid 3, 25 mg/kg",less than 10%
same,Mortality (day of death),"[1]; po 25 mg/kg D1-D4, individual mice",15
same,Parasitemia (%) D5,"[1]; po 50 mg/kg D1-D4, Mean ± SEM",0.01%
same,Mortality (day of death),"[1]; po 50 mg/kg D1-D4, individual mice",18
same,Parasitemia (%) D17,"[1]; po 50 mg/kg D1-D4, individual mice, 50 mg/kg",no visualized parasitaemia and 51%
same,IC50,D10 P. falciparum strain,14.3 ± 2.7 nM
same,IC50,"[3]; 3D7 strain, 48 h incubation",5.2 ± 0.7 nM
same,IC50,"[3]; Plasmodium falciparum, 3D7, 48 h, 3D7 strain, 48 h incubation",5.15 nM
